# Measured values taken from patent publication US4634709A, “Platelet aggregation inhibitory agents and intermediates therefor” (Research Corporation, priority 1984, dated 1987).
# Assays:
# [1] = test system: patient's platelets; conditions: Walder et al; cited from earlier work
# [2] = test system: human blood platelet aggregation, ADP-induced; assay: Inhibition of ADP-induced human blood platelet aggregation (aggregometry, platelet-rich plasma); type: cell-based; conditions: Platelet; 50 μM evaluant; human PRP; % reduction in maximal aggregation intensity vs control
# Method: (§1) Adenosine diphosphate (ADP) used to induce platelet aggregation was employed as the sodium salt. A 10 mM stock solution was prepared fresh before each use in modified Tyrode's buffer and working dilutions were prepared with modified Tyrode's buffer immediately prior to use. The buffer contained NaCl (137.00 mM), KCl (2.70 mM), NaHCO3 (11.90 mM), NaH2 PO4.H2 O (0.36 mM) and glucose (5.60 mM) in redistilled water. Adjustment to pH 7.4 was effected by addition of 1N HCl. A solution of highly purified human α-thrombin (10,624 units/ml) wss stored at -70° C. in 10 μl aliquots. The latter were diluted with modified Tyrode's buffer to a concentration of 10.0 units/ml immediately prior to use.
# (§2) Venous blood for the examples set forth below was collected in plastic syringes from healthy male volunteers (aged 21-30 years) who had fasted overnight and had abstained from all medications, alcohol, tobacco and caffeine for a period of at least one week prior to donations. In experiments employing ADP as the aggregation-inducing agent, the blood was transferred into siliconized centrifuge tubes containing 3.2% sodium citrate (blood/citrate ratio 8:1); in thrombin-induced aggregations, 3.8% sodium citrate (blood/citrate ratio 9:1) was used. The cirtrated whole blood was centrifuged at 120×g for 15 minutes at 23° C., yielding platelet-rich plasma (PRP); platelet-poor plasma (PPP) was obtained by centrifugation of citrated whole blood at 1,100×g for […] at 23° C. The platelet count of PRP was determined and adjusted to a final count of 300,000 platelets per mm^3 by dilution with autologous PPP. (Occasionally, blood from a given donor yielded PRP with a count lower than the stipulated figure; however, this was usually greater than 285,000, and never less than 250,000 platelets per mm^3.) The plasma so obtained was transferred in 1.2-ml aliquots to siliconized glass tubes, by means of a siliconized Pasteur pipet. In order to maintain plasma pH in the appropriate range, the air in the tubes was displaced gently (1 minute) with a 5% CO2 -95% air (v/v) mixture and the tubes sealed with Parafilm according to the method of Han et al, Br. J. Haematol. Vol. 26, pages 373-389 (1974). The plasma was maintained at 37° C. in a water bath until used in the aggregation experiments.
# Assays of platelet aggregation was performed at least in duplicate, using plasma acquired from different donors, employing a method developed by Quintana et al (Quintana et al, Thromb. Res., Vol. 22, pages 665-680 (1981); Quintana et al, Thromb. Res., Vol. 20, pages 405-415 (1980) (cf. Born, Nature, Vol. 194, pages 927-929 (1962) and Mustard et al, J. Lab. Clin. Med., Vol. 64, pages 548-559 (1964)).
# Initially, in each experiment, 0.45-ml aliquots of PRP were placed in siliconized cuvettes and stirred (1,100 rpm) in the aggregometer at 37° C. to ascertain the absence of spontaneous aggregation. Appropriate ADP solutions (50 μl) were subsequently injected using a Hamilton microliter syringe to determine the minimal concentration eliciting maximal biphasic aggregation. This ranged from 2 μM to 8 μM (cf. Quintana et al, Thromb. Res., Vol. 22, pages 665-680 (1981); Quintana et al, Thromb. Res., Vol. 20, pages 405-415 (1980)). In each case, the concentration of ADP so determined was used in eliciting aggregation throughout each specific set of aggregometric evaluations. In all thrombin-induced aggregation experiments the same stimulus was applied; this constituted injection of 50 μl of the solution containing 10.0 units of α-thrombin/ml (affording a final concentration of 1.0 unit of α-thrombin/ml PRP).
# 0.5 μl of a solution of the evaluant compound in redistilled 95% ethanol was injected into a stirred (1,100 rpm) 0.45-ml aliquot of plasma in a siliconized cuvette in the aggregometer-well (37° C.). After 15 seconds, the cuvette was transferred to an incubator (also at 37° C.) and the contents held at this temperature, without stirring, until 2 minutes post-injection. […]
# [3] = literature; cited from earlier work
# [4] = test system: human blood platelet aggregation, thrombin-induced; assay: Inhibition of thrombin-induced human blood platelet aggregation (aggregometry, platelet-rich plasma); type: cell-based; conditions: 50 μM evaluant; human PRP; 1.0 unit α-thrombin/ml PRP
# Method: as §1
# as §2, with “experiments. […]” for “experiments.”
# Initially, in each experiment, 0.45-ml aliquots of PRP were placed in siliconized cuvettes and stirred (1,100 rpm) in the aggregometer at 37° C. to ascertain the absence of spontaneous aggregation. […] In each case, the concentration of ADP so determined was used in eliciting aggregation throughout each specific set of aggregometric evaluations. […]
smiles,measurement,setting,value
"CC(=O)Oc1ccccc1C(=O)O [aspirin, reference compound]",effect on patient's platelets,[1],incapacitate the patient's platelets for the rest of their life span
same,inhibition at 50 µM,[2],24%
same,deleterious / adverse effects,[3],severe enough to counsel against its use by survivors of myocardial infarction
same,"% inhibition of aggregation, thrombin-induced",[4],9%
